Publication PMC12598805, “Crystal Structure–Activity Relationship of Some MeO Phenylacrylonitriles: Dual Antimicrobial–Cytotoxic Effects and in Silico Perspectives” (ChemistryOpen, 2025)
≈ marks a conversion by molar mass, not a printed value.

How the values were obtained:
Format in all cases: cell-based
[1] = tested on: Pseudomonas aeruginosa (ATCC 27853); test: Agar diffusion, zone of inhibition; conditions: P.aeruginosa, antibiotics at 5 mg mL^−1
Description: (§1) The antibacterial and antifungal activities were reported utilizing the method described by the Clinical & Laboratory Standards Institute.^[ [31], [32] ^] Agar diffusion method was used to determine the antimicrobial activity of the synthesized substances. The media used were mueller hinton agar (MHA) for bacteria and sabouraud‐dextrose agar (SDA) for fungi (Merck), as recommended by the manufacturer.
(§2) The synthesized compounds were initially investigated for their antimicrobial activity to elucidate the potential therapeutic utility against various pathogenic microbes using the agar plate diffusion method. The compounds were tested at a concentration of 50 mg mL^−1, and the antibiotics (ampicillin, kanamycin, and amphotericin B) were used at 5 mg mL^−1. […] K.pneumoniae and B.cereus were resistant to ampicillin, while they were susceptible to kanamycin with inhibition values of 30 and 26 mm, respectively. No antimicrobial activity of the compounds was observed against E.faecalis, S.typhimurium, K.pneumoniae, and for the fungus compared to Amphotericin B (20 mm). […]
(§3) Pseudomonas aeruginosa (ATCC 27853) […]
(§4) ATCC: American Type Culture Collection; NRRL: Northern Regional Research Laboratory The compounds 2(a-c) obtained could only be completely solubilised with dimethyl sulphoxide (DMSO) and the highest possible stock solutions of 50 mg.mL-1 were prepared. To these wells 50 μl of the previously prepared substances were transferred using sterile micropipette tips. For comparison, Ampicillin and kanamycin antibiotics for bacteria and Amphotericin B antibiotics for fungus were used as positive controls and DMSO was used as negative control. The prepared petri plates were kept at +4°C for about 1 hour and then the bacterial cultures were incubated at 37°C for 18-24 hours and mould cultures at 27-30°C for 48-72 hours. The zones formed were measured millimetrically with callipers. The experiments were performed with three repetitions. […]

[2] = tested on: Staphylococcus aureus (ATCC 29213); test: Broth microdilution MIC; conditions: ATCC29213, S.aureus
Protocol: (§5) Staphylococcus aureus (ATCC 29213) […]
(§6) ATCC: American Type Culture Collection; NRRL: Northern Regional Research Laboratory The compounds 2(a-c) obtained could only be completely solubilised with dimethyl sulphoxide (DMSO) and the highest possible stock solutions of 50 mg.mL-1 were prepared. […]
(§7) 3.1. Determination of Minimum Inhibition Concentration (MIC)
(§8) The minimum inhibition concentration (MIC) values of the compounds 2(a-c) against the test bacteria used in the study were determined according to the broth microdilution method.[1-2] MHB or SDB was used as test medium and bacterial and yeast suspensions were prepared at 0.5 Mc Farland concentration for each test bacteria. Double layer serial dilutions were prepared in "U" type 96-well microtiter plates. Medium+bacteria suspensions containing only medium in the first row, medium+bacteria in the second row and the final concentrations of the synthesised substances in the other rows between 25 mg.mL-1 and […] were added to the wells with a final volume of 200
(§9) μL. Ampicillin, Kanamycin and Amphotericin B standard antibiotics were used as positive controls.
(§10) Bacteria were incubated at 37±0.1 °C and C. albicans at 30±0.1 °C for 24-48 hours and the lowest concentration without growth was determined as MIC. Tests were performed in two parallel runs and mean values were given as a result. […]

[3] = tested on: Escherichia coli (ATCC 25922); test: Broth microdilution MIC; conditions: ATCC25922, E.coli
Protocol: (§11) Escherichia coli (ATCC 25922) […]
as §6, §7, §8, §9, §10

[4] = tested on: Enterococcus faecalis (ATCC 29212); test: Broth microdilution MIC; conditions: ATCC29212, E.faecalis
Protocol: (§12) Enterococcus faecalis (ATCC 29212) […]
as §6, §7, §8, §9, §10

[5] = tested on: Pseudomonas aeruginosa (ATCC 27853); test: MBC by sub-culture from wells without growth; conditions: ATCC27853, P.aeruginosa
Protocol: as §3, §6, §7, §8, §9
(§13) Bacteria were incubated at 37±0.1 °C and C. albicans at 30±0.1 °C for 24-48 hours and the lowest concentration without growth was determined as MIC. Tests were performed in two parallel runs and mean values were given as a result. In order to estimate “the minimum bactericidal/fungicidal concentrations (MBC/MFC) of the synthesised acrylonitrile derivatives “needed to indicate […] killing of the original inoculum,” 10 μl was taken from the wells with no observed growth and further sub-cultured onto their agar media (MHA and SDA for bacterial and fungal strains, respectively).[3] […]

[6] = tested on: Enterococcus faecalis (ATCC 29212); test: Agar diffusion, zone of inhibition; conditions: ATCC29212, E.faecalis, antibiotics at 5 mg mL^−1
Description: as §1, §2, §12, §4

[7] = tested on: Escherichia coli (ATCC 25922); test: Agar diffusion, zone of inhibition; conditions: antibiotics at 5 mg mL^−1
Description: as §1, §2, §11, §4

[8] = tested on: Staphylococcus aureus (ATCC 29213); test: Agar diffusion, zone of inhibition; conditions: S.aureus, antibiotics at 5 mg mL^−1
Description: as §1, §2, §5, §4

[9] = tested on: Klebsiella pneumoniae (ATCC-70063); test: Agar diffusion, zone of inhibition; conditions: K.pneumoniae, antibiotics at 5 mg mL^−1
Description: as §1, §2
Klebsiella pneumoniae (ATCC-70063)
as §4

[10] = tested on: Micrococcus luteus (NRRL-B-1018); test: Broth microdilution MIC; conditions: NRRLB1018, M.luteus
Protocol: (§14) Micrococcus luteus (NRRL-B-1018) […]
as §6, §7, §8, §9, §10

[11] = tested on: Staphylococcus aureus (ATCC 29213); test: MBC by sub-culture from wells without growth; conditions: ATCC29213, S.aureus
Protocol: as §5, §6, §7, §8, §9, §13

[12] = tested on: Bacillus subtilis (ATCC-19659); test: Broth microdilution MIC; conditions: ATCC19659
Protocol: as §6, §7, §8, §9, §10

[13] = tested on: Bacillus subtilis (ATCC-19659); test: Agar diffusion, zone of inhibition; conditions: B.subtilis, antibiotics at 5 mg mL^−1
Description: as §1, §2, §4

[14] = tested on: Micrococcus luteus (NRRL-B-1018); test: MBC by sub-culture from wells without growth; conditions: NRRLB1018, M.luteus
Protocol: as §14, §6, §7, §8, §9, §13

[15] = tested on: Bacillus cereus (ATCC-10876); test: Agar diffusion, zone of inhibition; conditions: B.cereus, antibiotics at 5 mg mL^−1
Description: as §1
The synthesized compounds were initially investigated for their antimicrobial activity to elucidate the potential therapeutic utility against various pathogenic microbes using the agar plate diffusion method. The compounds were tested at a concentration of 50 mg mL^−1, and the antibiotics (ampicillin, kanamycin, and amphotericin B) were used at 5 mg mL^−1. […] K.pneumoniae and B.cereus were resistant to ampicillin, while they were susceptible to kanamycin with inhibition values of 30 and 26 mm, respectively. No antimicrobial activity of the compounds was observed against E.faecalis, S.typhimurium, K.pneumoniae, and for the fungus compared to Amphotericin B (20 mm).
Bacillus cereus (ATCC-10876) […]
as §4

[16] = tested on: Bacillus subtilis (ATCC-19659); test: MBC by sub-culture from wells without growth; conditions: ATCC19659, B.subtilis
Protocol: as §6, §7, §8, §9, §10

[17] = tested on: Enterococcus faecalis (ATCC 29212); test: MBC by sub-culture from wells without growth; conditions: ATCC29212, E.faecalis
Protocol: as §12, §6, §7, §8, §9, §10

[18] = tested on: Salmonella typhimurium (NRRL-B-4420); test: Agar diffusion, zone of inhibition; conditions: Salmonella enterica; S.typhimurium; antibiotics at 5 mg mL^−1
Description: as §1, §2
Salmonella typhimurium (NRRL-B-4420) […]
as §4

[19] = tested on: Pseudomonas aeruginosa (ATCC 27853); test: Broth microdilution MIC; conditions: ATCC27853, P.aeruginosa
Protocol: as §3, §6, §7, §8, §9, §10

[20] = tested on: Escherichia coli (ATCC 25922); test: MBC by sub-culture from wells without growth; conditions: ATCC25922, E.coli
Protocol: as §11, §6, §7, §8, §9, §10

[21] = tested on: Micrococcus luteus (NRRL-B-1018); test: Agar diffusion, zone of inhibition; conditions: M.luteus, antibiotics at 5 mg mL^−1
Description: as §1, §2, §14, §4

CC1(C)S[C@@H]2[C@H](NC(=O)[C@H](N)c3ccccc3)C(=O)N2[C@H]1C(=O)O [Ampicillin, reference compound]
zone of inhibition [1]: 30 ± 0.71 mm | zone of inhibition at 5 mg/mL ([1]; Pseudomonas aeruginosa, ATCC27853): 30 mm | MIC [2]: 250 µg/mL (≈ 715 µM) | MIC [3]: 31.2 µg/mL (≈ 89.4 µM) | MIC [4]: 250 µg/mL (≈ 715 µM) | MBC [5]: 62.5 µg/mL (≈ 179 µM) | zone of inhibition at 5 mg/mL [6]: 34 ± 0.71 mm | zone of inhibition ([7]; E.coli): 25 ± 0.71 mm | zone of inhibition at 5 mg/mL ([7]; Escherichia coli, ATCC25922, E.coli): 23 mm | zone of inhibition [8]: 24 ± 1.41 mm | zone of inhibition at 5 mg/mL ([8]; Staphylococcus aureus, ATCC29213): 24 mm | zone of inhibition [9]: resistant | zone of inhibition at 5 mg/mL ([9]; Klebsiella pneumoniae, ATCC70063): < 6 mm | MIC [10]: 31.2 µg/mL (≈ 89.4 µM) | MBC [11]: 250 µg/mL (≈ 715 µM) | MIC [12]: 12500 µg/mL (≈ 35800 µM) | zone of inhibition [13]: 32 ± 1.41 mm | zone of inhibition at 5 mg/mL ([13]; Bacillus subtilis, ATCC19659): 32 mm | MBC [14]: 31.2 µg/mL (≈ 89.4 µM) | zone of inhibition [15]: resistant | zone of inhibition at 5 mg/mL ([15]; Bacillus cereus, ATCC10876): < 6 mm | MBC [16]: 25000 µg/mL (≈ 71500 µM) | MBC [17]: 250 µg/mL (≈ 715 µM) | zone of inhibition at 5 mg/mL [18]: 25 mm | MIC [19]: 62.5 µg/mL (≈ 179 µM) | MBC [20]: 31.2 µg/mL (≈ 89.4 µM) | zone of inhibition [21]: 44 ± 5.66 mm | zone of inhibition at 5 mg/mL ([21]; Micrococcus luteus, NRRLB1018): 44 mm
